From publication PMC7076440, “New Preclinical Development of a c-Met Inhibitor and Its Combined Anti-Tumor Effect in c-Met-Amplified NSCLC” (Pharmaceutics, 2020)

What was measured:
Assay type in all cases: physicochemical
[1] = Forced degradation study
Experimental: ABN401 was dissolved in 50/50 (v/v) % of acetonitrile and water, to give a stock solution of 2 mg/mL. The stock sample was diluted to a final concentration of 0.5 mg/mL and subjected to various stresses such as 1.0 N HCl acid (pH 1.1), 1.0 N NaOH base (pH 12.3), 1.0% hydrogen peroxide, heat (in solution and as a solid material) in an oven at 60 °C, and UV-Vis light (in solution) in a closed quartz container at 20 °C with UV light at 16.08 mW/m2; Vis 5.7 kLux. The samples were tested with quantitative HPLC method at 24, 48, and 72 h. The results were expressed in area % for recovery. The control sample was left at ambient conditions to simulate the potential loss of ABN401 when left at ambient conditions (> 99.0%).

[2] = Six-month accelerated storage stability (HPLC); details: for decrease in the main peak: closed HDPE container
Experimental: An HPLC system (Shimadzu LC-20, Shimadzu, Kyoto, Japan) was used to analyze the solubility, dissolution profile, and degradation products as well as to determine the storage stability of ABN401. The wavelength of the UV detector was set at 282 nm. For quantification analysis, the Agilent Eclipse Plus C18 (5 μm, 4.6 × 150 mm) (Agilent technologies, Santa Clara, CA, USA) was used and maintained at 30 °C. The mobile phase was a mixture of acetonitrile and 50 mM acetate buffer at pH 5.0 at a volume ratio of 50 to 50 (v/v %). The flow rate of the mobile phase was 0.5 mL/min and the injection volume was 10 μL. A Kromasil C8 (5 μm, 4.6 × 250 mm) column was used for qualification analysis to observe the impurity profile during the storage stability test. The following gradient was applied: 0–20 min, 80% acetonitrile and 20% acetate buffer to 20% acetonitrile and 80% acetate buffer, maintained up to 25 min; 25– 28 min, back to 80% acetonitrile and 20% acetate buffer, maintained up to 35 min. The flow rate of the mobile phase was 1 mL/min and the injection volume was 10 μL.
After understanding the degradative factors for ABN401 (i.e., light and oxidation), accelerated storage stability is further evaluated for 6 months at different temperatures (i.e., less than 0 °C, 4 °C, 25 °C, and 40 °C; Figure 3) in a closed system. Seven peaks including the main peak and impurities were evaluated using qualitative HPLC method (Figure 2b). […] In addition, peak 1 increased from 0.08% to 0.19%. These changes in peaks 1, 2, and 3 were more distinguishable when the storage temperature increased to 40 °C. […] On the other hand, the total loss of ABN401 in all four conditions was only around 1.2%–3.1%.

[3] = log D / log P, octanol/water
Experimental: ABN401 solution (10 μg/mL) was mixed with octanol at a ratio of 1:1 in a glass vial and placed horizontally in a Digital Bio Rotator (SeoLin Bioscience, Seongnam, Korea), and shaken at a constant 90 rpm for 24 h. After 6 h of equilibrium under room temperature, two phases of water and octanol were separated using a separating funnel. The experiment was repeated five times. The concentration of ABN401 at each phase was analyzed by HPLC and log P and log D were calculated using the Henderson-Hasselbalch equation below with the previously determined pKa value. (4) logDbases =logP+log⎣1/(1+ 10^pKa−pH)⎦

[4] = Short storage stability of oral gavage formulation in cold chamber
Experimental: The solubility of ABN401 in two different acidic buffers (i.e., acetate and citrate) were analyzed at three different pH values: 4.0, 4.5, and 5.0 (Table 2). […] Different concentrations of PEG400, cremophor EL, and polysorbate 80 were also evaluated as co-solvents to ABN401 in 0.1 M acetate buffer at pH 4.0 to investigate the solubility enhancement. […] Therefore, 20% PEG400 in 0.1 M sodium acetate was selected as an oral gavage formulation and intravenous solution for in vivo studies. A short storage stability test was performed for 8 days in a cold chamber to determine the concentration recovery yields at low and high concentrations, which were 0.03 mg/mL and 133 mg/mL, respectively. […] As a result, pH 4.0 yielded the highest percentage recovery in both low and high concentrations (Table 3).

[5] = Polymorph stability by PXRD; details: 40 °C/75% RH, 1 month open container and 3 months closed container
Experimental: PXRD patterns were measured at room temperature using a D8 Advance with a DAVINCI X-ray diffractometer (Bruker AXS GmbH, Karlsruhe, Germany) equipped with a Ni-filtered Cu-Kα radiation (λ = 1.54056 Å) and a high speed LynxEye detector. The powder samples were loaded onto a quartz holder and scanned over a range of 4–40° at a scanning rate of 6°/min.
The polymorphism of ABN401 was also investigated with physical stresses by heat and humidity.

[6] = Dissolution test, USP Apparatus 2; details: for time to reach 100% release: 50 and 200 mg
Experimental: A dissolution test was carried out according to USP 36 Apparatus 2 (paddle method) at 100 rpm using 900 mL of dissolution medium maintained at 37 ± 0.5 °C (Varian 705 DS; Varian, Cary, NC, USA). Each capsule was enclosed in a stationary sinker (20 × 12 mm) to prevent the capsule from floating on the surface of the dissolution medium or sticking to the inner surface of the dissolution vessels (n = 4). The drug content was analyzed with an HPLC system using samples collected in Eppendorf tubes and centrifuged for 1 min.

CN1CCN(Cc2ccc(-c3cnc(N4CCOC(Cn5nnc6ncc(-c7cnn(C)c7)nc65)C4)nc3)cc2)CC1 (stereo not shown) [ABN401]
difference after exposure to acidic and basic pH ([1]; 1.0 N HCl (pH 1.1), 1.0 N NaOH (pH 12.3), 72 h): approximately 1.7%
sensitivity to UV/Vis light ([1]; in solution): highly sensitive
recovery of control sample ([1]; left at ambient conditions, area %): > 99.0%
decrease in the main peak ([2]; 6 months, 0 °C (frozen) and 4 °C): < 0.5%
decrease in the main peak ([2]; 6 months, 25 °C): > 0.5%
main peak remaining ([2]; 6 months, all conditions): around 98%
purity remaining ([2]; after 6 months accelerated storage): over 97%
logD ([3]; average ± SD of five runs): 1.41 ± 0.08
logP at 24 h ([3]; average ± SD of five runs): 2.46 ± 0.04
logD ([3]; pH 6.4, run 3, pH 6.40): 1.37
logP at 24 h ([3]; run 1, from log D and pKa (Henderson-Hasselbalch)): 2.41
logD ([3]; run 1, pH 6.41): 1.3
logP at 24 h ([3]; run 2, from log D and pKa): 2.43
logD ([3]; run 2, pH 6.59): 1.48
logP at 24 h ([3]; run 3, from log D and pKa): 2.5
logP at 24 h ([3]; run 4, from log D and pKa): 2.51
logD ([3]; run 4, pH 6.49): 1.47
logP at 24 h ([3]; run 5, from log D and pKa): 2.45
logD ([3]; run 5, pH 6.53): 1.45
Recovery ([4]; 0.03 mg/mL, pH 2.0, day 8, 2–8 °C): 104.4%
Recovery ([4]; 0.03 mg/mL, pH 3.0, day 8, 2–8 °C): 96.5%
Recovery ([4]; 0.03 mg/mL, pH 4.0, day 0, 2–8 °C): 100.0%
Recovery ([4]; 0.03 mg/mL, pH 4.0, day 8, 2–8 °C): 97.0%
Recovery ([4]; 133 mg/mL, pH 2.0, day 8, 2–8 °C): 94.8%
Recovery ([4]; 133 mg/mL, pH 3.0, day 8, 2–8 °C): 94.4%
Recovery ([4]; 133 mg/mL, pH 4.0, day 0, 2–8 °C): 98.0%
Recovery ([4]; 133 mg/mL, pH 4.0, day 8, 2–8 °C): 98.0%
change in polymorph [5]: no change in its polymorph
dissolved in less than 45 min ([6]; 50 mg physical blend capsules with and without excipients (starch, MCC), pH 1.2 medium): above 85%
time to reach 100% release ([6]; high shear granulated blend in capsule): ≤ 60 min
time to reach 100% release ([6]; optimized granulation blend in capsule, pH 1.2 medium): ≤ 30 min
